From ChEMBL document CHEMBL1135359, “Antifungal sordarins. Synthesis and structure-activity relationships of 3',4'-fused dioxolane and dioxane derivatives” (2002)
Converted amounts (≈) assume the structure as drawn.

What was measured:
Assay type in all cases: functional
Nakaseomyces glabratus = assay: In vitro antifungal activity for Candida glabrata 2375E
Candida albicans [1] = assay: In vitro antifungal activity for Candida albicans 2005E
Candida albicans [2] = assay: In vitro antifungal activity for Candida albicans 2402E
Candida albicans [3] = assay: In vitro antifungal activity for Candida albicans 4711E
Kluyveromyces marxianus = assay: In vitro antifungal activity for Candida pseudotropicalis 2371E
Candida tropicalis = assay: In vitro antifungal activity for Candida tropicalis 2808E
Cryptococcus neoformans = assay: In vitro antifungal activity for Cryptococcus neoformans 2867E

SMILES | MIC (Nakaseomyces glabratus) | MIC (Candida albicans [1]) | MIC (Candida albicans [2]) | MIC (Candida albicans [3]) | MIC (Kluyveromyces marxianus) | MIC (Candida tropicalis) | MIC (Cryptococcus neoformans)
CC(C)C1=CC2CC3(C=O)[C@@H]4CC[C@@H](C)[C@H]4CC2(CO[C@H]2C[C@@H]4OCO[C@@H]4[C@@H](C)O2)C13C(=O)O (stereo partly specified) | 16 µg/mL (≈ 33.7 µM) | 0.015 µg/mL (≈ 0.0316 µM) | 0.015 µg/mL (≈ 0.0316 µM) | 0.03 µg/mL (≈ 0.0632 µM) | 0.03 µg/mL (≈ 0.0632 µM) | 0.25 µg/mL (≈ 0.527 µM) | 0.5 µg/mL (≈ 1.05 µM)
C/C=C/C=C(\C)C(=O)O[C@H]1[C@H](O)[C@H](OCC23C[C@@H]4[C@H](C)CC[C@H]4C4(C=O)CC2C=C(C(C)C)C34C(=O)O)O[C@H](C)[C@H]1OC (stereo partly specified) | > 125 µg/mL | 0.015 µg/mL (≈ 0.025 µM) | 0.03 µg/mL (≈ 0.0499 µM) | 0.25 µg/mL (≈ 0.416 µM) | 0.03 µg/mL (≈ 0.0499 µM) | 0.06 µg/mL (≈ 0.0999 µM) | 0.25 µg/mL (≈ 0.416 µM)
CC(C)C1=CC2CC3(C=O)[C@@H]4CC[C@@H](C)[C@H]4CC2(CO[C@H]2C[C@@H]4OC(=O)O[C@@H]4[C@@H](C)O2)C13C(=O)O (stereo partly specified) | 8 µg/mL (≈ 16.4 µM) | 1 µg/mL (≈ 2.05 µM) | 4 µg/mL (≈ 8.19 µM) | 2 µg/mL (≈ 4.09 µM) | 1 µg/mL (≈ 2.05 µM) | 2 µg/mL (≈ 4.09 µM) | 16 µg/mL (≈ 32.7 µM)
CC(C)C1=CC2CC3(C=O)[C@@H]4CC[C@@H](C)[C@H]4CC2(CO[C@H]2C[C@@H]4OC(C)(C)O[C@@H]4[C@@H](C)O2)C13C(=O)O (stereo partly specified) | 31 µg/mL (≈ 61.7 µM) | < 0.001 µg/mL | 0.008 µg/mL (≈ 0.0159 µM) | 0.004 µg/mL (≈ 0.00796 µM) | 0.004 µg/mL (≈ 0.00796 µM) | 0.12 µg/mL (≈ 0.239 µM) | 8 µg/mL (≈ 15.9 µM)
CC(C)C1=CC2CC3(C=O)[C@@H]4CC[C@@H](C)[C@H]4CC2(CO[C@@H]2C[C@@H]4OC(C)(C)O[C@@H]4[C@@H](C)O2)C13C(=O)O (stereo partly specified) | > 125 µg/mL | 2 µg/mL (≈ 3.98 µM) | – | 4 µg/mL (≈ 7.96 µM) | 4 µg/mL (≈ 7.96 µM) | 16 µg/mL (≈ 31.8 µM) | > 125 µg/mL
CC(C)C1=CC2CC3(C=O)[C@@H]4CC[C@@H](C)[C@H]4CC2(CO[C@H]2C[C@@H]4OC(C)(C)CO[C@@H]4[C@@H](C)O2)C13C(=O)O (stereo partly specified) | > 125 µg/mL | 0.015 µg/mL (≈ 0.029 µM) | 0.12 µg/mL (≈ 0.232 µM) | 0.25 µg/mL (≈ 0.484 µM) | 0.03 µg/mL (≈ 0.0581 µM) | 1 µg/mL (≈ 1.94 µM) | 31 µg/mL (≈ 60 µM)

Results, then the compound that gave them:

MIC (Nakaseomyces glabratus) | MIC (Candida albicans [1]) | MIC (Candida albicans [2]) | MIC (Candida albicans [3]) | MIC (Kluyveromyces marxianus) | MIC (Candida tropicalis) | MIC (Cryptococcus neoformans) | SMILES
8 µg/mL (≈ 16.4 µM) | < 0.001 µg/mL | – | < 0.001 µg/mL | 0.004 µg/mL (≈ 0.00819 µM) | 0.03 µg/mL (≈ 0.0614 µM) | 31 µg/mL (≈ 63.4 µM) | CC1O[C@H]2[C@H](C[C@H](OCC34C[C@@H]5[C@H](C)CC[C@H]5C5(C=O)CC3C=C(C(C)C)C45C(=O)O)O[C@@H]2C)O1 (stereo partly specified)
16 µg/mL (≈ 31.7 µM) | 2 µg/mL (≈ 3.96 µM) | 8 µg/mL (≈ 15.9 µM) | 2 µg/mL (≈ 3.96 µM) | 1 µg/mL (≈ 1.98 µM) | 125 µg/mL (≈ 248 µM) | 8 µg/mL (≈ 15.9 µM) | CC(C)C1=CC2CC3(C=O)[C@@H]4CC[C@@H](C)[C@H]4CC2(CO[C@H]2C[C@@H]4OC(=S)O[C@@H]4[C@@H](C)O2)C13C(=O)O (stereo partly specified)
> 125 µg/mL | 2 µg/mL (≈ 3.86 µM) | 8 µg/mL (≈ 15.4 µM) | 8 µg/mL (≈ 15.4 µM) | 2 µg/mL (≈ 3.86 µM) | 31 µg/mL (≈ 59.8 µM) | > 125 µg/mL | CC(C)C1=CC2CC3(C=O)[C@@H]4CC[C@@H](C)[C@H]4CC2(CO[C@@H]2O[C@H](C)[C@H]4OC(C)(C)OC4[C@H]2O)C13C(=O)O (single isomer, unassigned)
125 µg/mL (≈ 240 µM) | 31 µg/mL (≈ 59.5 µM) | 62 µg/mL (≈ 119 µM) | 62 µg/mL (≈ 119 µM) | 31 µg/mL (≈ 59.5 µM) | > 125 µg/mL | 16 µg/mL (≈ 30.7 µM) | CC(C)C1=CC2CC3(C=O)[C@@H]4CC[C@@H](C)[C@H]4CC2(CO[C@@H]2O[C@H](C)[C@H]4OC(=S)OC4[C@@H]2O)C13C(=O)O (single isomer, unassigned)
31 µg/mL (≈ 59.8 µM) | 0.12 µg/mL (≈ 0.231 µM) | 0.5 µg/mL (≈ 0.964 µM) | 0.12 µg/mL (≈ 0.231 µM) | 0.06 µg/mL (≈ 0.116 µM) | 1 µg/mL (≈ 1.93 µM) | 125 µg/mL (≈ 241 µM) | CC(C)C1=CC2CC3(C=O)[C@@H]4CC[C@@H](C)[C@H]4CC2(CO[C@@H]2O[C@H](C)[C@H]4OC(C)(C)OC4[C@@H]2O)C13C(=O)O (single isomer, unassigned)
62 µg/mL (≈ 123 µM) | 0.03 µg/mL (≈ 0.0595 µM) | – | 0.5 µg/mL (≈ 0.991 µM) | 0.5 µg/mL (≈ 0.991 µM) | 1 µg/mL (≈ 1.98 µM) | 16 µg/mL (≈ 31.7 µM) | CC1OC2[C@H](O)[C@H](OCC34C[C@@H]5[C@H](C)CC[C@H]5C5(C=O)CC3C=C(C(C)C)C45C(=O)O)O[C@H](C)[C@H]2O1 (single isomer, unassigned)
